Test results published in patent publication US20100234306A1, “USE OF A PEPTIDE AS A THERAPEUTIC AGENT” (priority 2007, published 2010).
Where no end group is shown, it is not given here.

Test system: drug-resistant Mycobacterium tuberculosis
Details: Mycobacterium tuberculosis resistant against PAS, streptomycin and isoniazid; Middlebrook 7H12, seven days; peptide 10 micrograms per ml

Substance: MQMKKVLDS-OH [AIP-1]
- % inhibition: 100.0%
